Values after ≈ are worked out from the molar mass of the structure shown. Read-outs that look alike come from different tables or passages of the source.
Tests used:
E. coli TrxR = E. coli TrxR (Escherichia coli, UniProt P0A9P4); assay: E. coli TrxR inhibition, thioredoxin dependent DTNB reduction assay; assay type: biochemical
Procedure: Further we examined the effect of ebselen in the reduction of disulfide by E. coli Trx and TrxR using both DTNB and insulin as substrates.
All the benzisoselenazol-3(2H)-one and bisbenzisoselenazol-3(2H)-one derivatives were tested as potential E. coli TrxR inhibitors by standard DTNB assay. […] The reactions were started by adding 1 mM DTNB to the mixture of 100 nM TrxR, 2 μM Trx, 240 μM NADPH, and different concentration of inhibitor (1-40 μM). […] The reactions were started by adding 6 nM TrxR at room temperature. Inhibition constants (Ki) for all the compounds were measured from Dixon plot, which plots 1/v versus […], I=Inhibitor concentration).

recombinant rat TrxR = biological target: T1, recombinant rat TrxR (Rattus norvegicus, UniProt O89049); assay: Inhibition of mammalian (recombinant rat) TrxR
T1 sequence (O89049 1-499): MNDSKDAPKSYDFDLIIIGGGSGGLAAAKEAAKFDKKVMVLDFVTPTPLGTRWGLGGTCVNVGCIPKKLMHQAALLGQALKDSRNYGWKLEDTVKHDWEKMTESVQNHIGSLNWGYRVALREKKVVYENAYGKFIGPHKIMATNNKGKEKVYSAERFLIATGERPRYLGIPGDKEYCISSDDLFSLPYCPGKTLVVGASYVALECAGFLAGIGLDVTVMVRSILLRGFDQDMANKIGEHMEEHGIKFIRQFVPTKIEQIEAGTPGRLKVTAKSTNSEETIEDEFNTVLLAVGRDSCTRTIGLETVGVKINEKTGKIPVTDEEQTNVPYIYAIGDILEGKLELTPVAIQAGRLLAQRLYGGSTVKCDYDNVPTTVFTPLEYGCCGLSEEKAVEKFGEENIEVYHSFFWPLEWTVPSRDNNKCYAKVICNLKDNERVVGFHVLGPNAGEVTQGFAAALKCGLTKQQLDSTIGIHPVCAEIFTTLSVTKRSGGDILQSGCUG

HEK 293T cells = HEK 293T cells growth (cytotoxicity); assay type: cell-based
[1] = Glutathione peroxidase (GPx) activity of the compounds; assay type: biochemical; settings: for Relative GPx activity: EbSe 6 = 1
wild type DHB4 E. coli = assay: Inhibition of bacterial growth (MIC), wild type DHB4 E. coli; settings: for MIC: Escherichia coli, DHB4E.COLI, read-out: MIC for wild type DHB4 E. coli
Text: (§1) Here E. coli DHB4 strains wt, gshA^−, gor^−, oxyR^− were used as the model to test the antibiotics activity of these ebselen derivatives.

gshA^− DHB4 E. coli = assay: Inhibition of bacterial growth (MIC), gshA^− DHB4 E. coli; settings: for sensitivity of gshA^− / gor^− strains compared with wild type: E. coli strains wt; for MIC: Escherichia coli, read-out: MIC for gshA^− DHB4 E. coli
Text: as §1

Gor DHB4 E. coli = assay: Inhibition of bacterial growth (MIC), Gor DHB4 E. coli; settings: for MIC: Escherichia coli, DHB4E.COLI, read-out: MIC for Gor DHB4 E. coli
Text: as §1

H. pylori strains = assay: MIC against H. pylori strains; settings: Helicobacter pylori
E. coli = assay type: cell-based, Escherichia coli; settings: 16 h
[2] = DTNB assay, 100 nM TrxR, 2 μM Trx, 240 μM NADPH, 1 mM DTNB, read-out: IC50 for E. coli TrxR
[3] = Dixon plot, 6 nM TrxR, Trx 1, 2 or 4 μM
[4] = Homo sapiens, HEK-293T; read-out: IG50 for HEK 293T
[5] = Dixon plot, 6 nM TrxR, Trx 1, 2 or 4 μM, read-out: Ki for E. coli TrxR
[6] = Homo sapiens, HEK-293T, read-out: IG50 for HEK 293T

E. coli TrxR, sequence (P0A9P4 whole entry): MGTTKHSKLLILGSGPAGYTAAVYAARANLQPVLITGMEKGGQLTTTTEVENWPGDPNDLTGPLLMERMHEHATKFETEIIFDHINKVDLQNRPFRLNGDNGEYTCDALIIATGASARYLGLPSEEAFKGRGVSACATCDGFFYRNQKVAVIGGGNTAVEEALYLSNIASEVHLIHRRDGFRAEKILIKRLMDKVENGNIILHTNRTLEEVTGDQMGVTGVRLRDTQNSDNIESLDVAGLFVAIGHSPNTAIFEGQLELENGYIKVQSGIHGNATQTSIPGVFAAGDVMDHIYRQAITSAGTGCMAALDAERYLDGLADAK

For `O=C(O)c1ccc(-n2[se]c3ccccc3c2=O)cc1` [EbSe 10], the IC50 (E. coli TrxR; [2]) was 15 µM, the “Ki for E. coli TrxR” value (E. coli TrxR; [3]) was “Not detected” and the IC50 (recombinant rat TrxR) was over 10 µM. For the same molecule, the IC50 (HEK 293T cells; [4]) was 55 µM and the “Relative GPx activity” value [1] was 1.8.

In the case of `O=c1c2ccccc2[se]n1-c1ccc(Cl)cc1` [EbSe 11], the IC50 (E. coli TrxR) is reported as over 40 µM, the Ki (E. coli TrxR) is reported as 0.3 µM and the “Ki for E. coli TrxR” value (E. coli TrxR; [3]) is reported as “Not detected”. The “MIC for wild type DHB4 E. coli” value (wild type DHB4 E. coli) was “No Inhibition”, the IC50 (HEK 293T cells; read-out: IG50 for HEK 293T) was over 160 µM and the “MIC for gshA^− DHB4 E. coli” value (gshA^− DHB4 E. coli) was “No Inhibition”. For the same molecule, the “Relative GPx activity” value [1] was 0.87 and the “MIC for Gor DHB4 E. coli” value (Gor DHB4 E. coli) was “No Inhibition”.

In the case of `O=c1c2ccccc2[se]n1-c1ccccc1[N+](=O)[O-]` [EbSe 12], the IC50 (E. coli TrxR; [2]) is reported as 3 µM, the Ki (E. coli TrxR; [5]) is reported as 0.25 µM and the IC50 (recombinant rat TrxR) is reported as over 10 µM. The “MIC for wild type DHB4 E. coli” value (wild type DHB4 E. coli) was “No Inhibition”, the IC50 (HEK 293T cells; [6]) was 80 µM and the “MIC for gshA^− DHB4 E. coli” value (gshA^− DHB4 E. coli) was “No Inhibition”. For the same molecule, the “sensitivity of gshA^− / gor^− strains compared with wild type” value (gshA^− DHB4 E. coli) was “same sensitivity”, the “GPx activity (in words)” value [1] was “no GPx activity” and the “Relative GPx activity” value [1] was 0.93. The “MIC for Gor DHB4 E. coli” value (Gor DHB4 E. coli) was “No Inhibition”.

In the case of `O=c1c2ccccc2[se]n1-c1ccncc1` [EbSe 13], the IC50 (E. coli TrxR; [2]) is reported as 3 µM, the Ki (E. coli TrxR; [5]) is reported as 1.5 µM and the IC50 (recombinant rat TrxR) is reported as over 10 µM. The MIC (wild type DHB4 E. coli) was 45 µM (≈ 12.4 µg/mL), the IC50 (HEK 293T cells; [4]) was 60 µM and the MIC (gshA^− DHB4 E. coli) was 21 µM (≈ 5.78 µg/mL). The “Relative GPx activity” value [1] was 1.4 and the MIC (Gor DHB4 E. coli) was 24 µM (≈ 6.6 µg/mL).

For `O=c1c2ccccc2[se]n1CCn1[se]c2ccccc2c1=O` [EbSe 14], the IC50 (E. coli TrxR; [2]) was 2 µM, the Ki (E. coli TrxR; [5]) was 0.05 µM and the MIC (wild type DHB4 E. coli) was 23 µM (≈ 9.71 µg/mL). The “sensitivity of gshA^− / gor^− strains compared with wild type” value (gshA^− DHB4 E. coli) was “same sensitivity”, the MIC (gshA^− DHB4 E. coli) was 23 µM (≈ 9.71 µg/mL) and the MIC (Gor DHB4 E. coli) was 19 µM (≈ 8.02 µg/mL).

In the case of `O=c1c2ccccc2[se]n1CCCn1[se]c2ccccc2c1=O` [EbSe 15], the Ki (E. coli TrxR) is reported as 0.038 µM, the IC50 (E. coli TrxR; [2]) is reported as 2.1 µM and the IC50 (HEK 293T cells; [4]) is reported as 9.5 µM.

With `O=c1c2ccccc2[se]n1CCCCCCn1[se]c2ccccc2c1=O` [EbSe 16] the IC50 (E. coli TrxR; [2]) was 2.25 µM, the Ki (E. coli TrxR; [5]) was 0.025 µM and the Ki (E. coli TrxR; for the selenium released stock, read-out: Ki for E. coli TrxR, selenium released stock) was 0.01 µM. The MIC (wild type DHB4 E. coli) was 20 µM (≈ 9.57 µg/mL), the IC50 (HEK 293T cells; [6]) was 9.2 µM and the “sensitivity of gshA^− / gor^− strains compared with wild type” value (gshA^− DHB4 E. coli) was “same sensitivity”. The MIC (gshA^− DHB4 E. coli) was 20 µM (≈ 9.57 µg/mL) and the MIC (Gor DHB4 E. coli) was 35 µM (≈ 16.7 µg/mL).

With `CCOC(=O)c1cccnc1[Se]Nc1ccc(Cl)cc1` [EbSe 22] the IC50 (E. coli TrxR; [2]) was over 10 µM and the Ki (E. coli TrxR; [5]) was 7.5 µM.

For `CCOC(=O)c1cccnc1[Se]Nc1ccc(Cl)cn1` [compound 2], the IC50 (E. coli TrxR; [2]) was over 10 µM, the Ki (E. coli TrxR; [5]) was 7.5 µM and the “MIC for wild type DHB4 E. coli” value (wild type DHB4 E. coli) was “No Inhibition”. For the same molecule, the IC50 (HEK 293T cells; [6]) was 60 µM, the “MIC for gshA^− DHB4 E. coli” value (gshA^− DHB4 E. coli) was “No Inhibition” and the “MIC for Gor DHB4 E. coli” value (Gor DHB4 E. coli) was “No Inhibition”.

`Cc1ncc([N+](=O)[O-])n1CCO` [metronidazole] gave an MIC (H. pylori strains) of 6.25 µg/mL (≈ 36.5 µM) and an MIC (H. pylori strains; NCTC11637) of 0.78 µg/mL (≈ 4.56 µM).

In the case of `O=[N+]([O-])[O-].[Ag+]` [silver, Silver nitrate], the “MIC, silver alone” value (E. coli) is reported as “about 42 μM”, the MIC for silver (E. coli; in the presence of 2 μM ebselen) is reported as 8.4 µM and the “silver concentration that inhibited E. coli growth” value (E. coli; in the presence of 8 μM ebselen) is reported as 1 µM.
